Data from patent publication US7875648B2, “N-(dibenz(b,f)oxepin-10-ylmethyl)-N-methyl-N-prop-2-ynylamine (omigapil) for the treatment of congenital muscular dystrophy or myopathy resulting from collagen VI deficiency” (Santhera Pharmaceuticals (Schweiz) AG, priority 2006, dated 2011).

Key:
[1] = tested on: glyceraldehyde-3-phosphate dehydrogenase (GAPDH); details: reported in J. Biol. Chem. 273:5821-5828; cited from earlier work
[2] = tested on: homozygous col6a1-/- mice (Col6a1-deficient mouse model), diaphragm muscle; test: Apoptotic (TUNEL-positive) nuclei in diaphragm muscle of col6a1-/- mice; assay type: in vivo; details: 5 days
Source text: (§1) Homozyguous col6a1−/− mutants lack triple-helical collagen VI resulting in a phenotype that resembles BM/UCMD in human patients with collagen VI deficiency. Specifically, col6a1−/− mice show histological features of myopathy such as fiber necrosis and phagocytosis and a pronounced variation in fiber diameter. Muscles also show signs of stimulated regeneration of fibers and necrotic fibers are particularly frequent in the diaphragm thereby resembling more the clinical picture of UCMD than BM (Bertini E., Pepe G. (2002) Collagen type VI and related disorders: Bethlem myopathy and Ullrich scleroatonic muscular dystrophy Europ. J. Paediatric Neurology 6:193-198). […] This mitochondrial dysfunction might be caused by slight increase in of sarcolemmal calcium influx followed by calcium overload eventually causing opening of the mitochondrial permeability transition pore (MPTP) and finally apoptosis.
The effect of N-(dibenz(b,f)oxepin-10-ylmethyl)-N-methyl-N-prop-2-ynylammonium maleate (omigapil) was tested on the number of apoptotic nuclei in muscle of a Col6a1-deficient mouse model. Starting at 16±4 weeks of age, homozygous col6a1−/− mice were treated with omigapil. For this, omigapil was dissolved in 1% w/v ethanol to a final concentration of 20 μg/ml. Mutant mice received a final dose of 1 mg/kg or 10 mg/kg omigapil given twice daily by gavage following the guidance as described elsewhere (Sagot Y. et al. (2000) An orally active anti-apoptotic molecule (CGP 3466B) preserves mitochondria and enhances survival in an animal model of motoneuron disease. Br. J. Pharmacol. 131:721-728). For comparison col6a1−/− mice received the equivalent amount of vehicle only. After five days of application mice were sacrificed, the diaphragm removed, sectioned and stained for apoptotic nuclei using TUNEL staining. The number of apoptotic nuclei per mm2 area in the diaphragm muscle was determined as described (Irwin W A et al. (2003) Mitochondrial dysfunction and apoptosis in myopathic mice with collagen VI deficiency. Nature Genetics 35:367-371).

[3] = tested on: Col6a1-deficient mice, mitochondria in muscle fibers of the diaphragm muscle; test: Ultrastructural appearance of mitochondria in diaphragm muscle fibers of Col6a1-deficient mice; assay type: in vivo, mouse; details: for percentage of myofibers with pathologically altered mitochondria vs vehicle-treated animals: Col6a1-deficient mice, diaphragm, FIG. 2
Source text: as §1
The effect of N-(dibenz(b,f)oxepin-10-ylmethyl)-N-methyl-N-prop-2-ynylammonium maleate (omigapil) was tested on the effect to normalize ultrastructural defects in mitochondria of a Col6a1-deficient mouse model. For this, Col6a1-deficient mice were treated with omigapil as described in Example 1.
The ultrastructural appearance of mitochondria in muscle fibers of the diaphragm muscle was determined and quantified as described (Irwin W A et al. (2003) Mitochondrial dysfunction and apoptosis in myopathic mice with collagen VI deficiency. Nature Genetics 35:367-371).

Molecule: C#CCN(C)CC1=Cc2ccccc2Oc2ccccc21 [compound of formula (I), N-(dibenz(b,f)oxepin-10-ylmethyl)-N-methyl-N-prop-2-ynylamine]
- binding to glyceraldehyde-3-phosphate dehydrogenase (GAPDH) [1]: binds to glyceraldehyde-3-phosphate dehydrogenase (GAPDH)

Molecule: N-(dibenz(b,f)oxepin-10-ylmethyl)-N-methyl-N-prop-2-ynylammonium maleate [omigapil]
- number of apoptotic nuclei in diaphragm muscle (TUNEL staining) vs vehicle-treated col6a1-/- mice ([2]; 1 mg/kg twice daily by gavage, N=3, FIG. 1): significantly reduced
- number of apoptotic nuclei in diaphragm muscle (TUNEL staining) vs vehicle-treated col6a1-/- mice ([2]; 10 mg/kg twice daily by gavage, N=4, FIG. 1): significantly reduced
- number of apoptotic nuclei in omigapil-treated animals relative to wild-type animal ([2]; omigapil-treated, diaphragm muscle): comparable to the number seen in diaphragm muscle of a wild-type animal
- ultrastructural appearance of mitochondria in muscle fibers of the diaphragm muscle ([3]; Col6a1-deficient mice treated as in Example 1): normalized
- percentage of myofibers with pathologically altered mitochondria vs vehicle-treated animals ([3]; 1 mg/kg (animals B1-B2)): clearly reduced
- percentage of myofibers with pathologically altered mitochondria vs vehicle-treated animals ([3]; 10 mg/kg (animals A1-A3)): clearly reduced
